{"source": "patent US12453349B2", "about": "“Compositions comprising pyridine carboxylate herbicides and 4-hydroxyphenyl-pyruvate dioxygenase (HPPD) inhibitor herbicides” (Corteva Agriscience LLC, priority 2018, dated 2025)", "type_in_all_cases": "in vivo", "key": {"[1]": {"tested_on": "AMARE, Amaranthus retroflexus (pigweed)", "test": "Greenhouse postemergence herbicidal effect, visual injury 20-22 d after application", "excerpt": "(§1) Seeds of the desired test plant species were planted in a 90:10% v/v (volume/volume) mixture of PRO-MIX® BX (Premier Tech Horticulture, Quakertown, PA, USA) and PROFILE® GREENS GRADE™ (Profile Products LLC, Buffalo Grove, IL, USA) planting mixture, which typically has a pH of 5.2 to 6.2 and an organic matter content of at least 50 percent, in plastic pots with a surface area of 103.2 square centimeters (cm^2). In some aspects, to help ensure good germination and healthy plants, a fungicide treatment and/or other chemical or physical treatment was applied. The plants were grown for 7-36 days (d) in a greenhouse with an approximate 14-hour (h) photoperiod which was maintained at about 23° C. during the day and 22° C. during the night. Nutrients and water were added on a regular basis and supplemental lighting was provided with overhead metal halide 1000-Watt lamps as necessary. The plants were employed for testing when they reached the second or third true leaf stage.\n(§2) Emulsifiable concentrates of each of each pyridine carboxylate herbicide (Compound A or Compound B) were prepared at 100 grams acid equivalent per liter (g ae/L). The emulsifiable concentrates also included a safener, cloquintocet mexyl, at 120 grams active ingredient per liter (g ai/L). An aliquot of each emulsifiable concentrate was placed in a 25 mL glass vial and diluted with an aqueous mixture of 1.25% (v/v) ACTIROB® B esterified rapeseed oil (Bayer Crop Science, Research Triangle Park, NC, USA) or MSO® Concentrate with LECI-TECH® methylated soybean oil (Loveland Products, Loveland, CO, USA) to obtain concentrated stock solutions at the highest application rate for each herbicide, based upon a 12 milliliter (mL) application volume at a rate of 187 liters per hectare (L/ha). The concentrated stock solutions were further diluted with an aqueous mixture of 1.25% v/v ACTIROB® B or MSO® Concentrate with LECI-TECH® to obtain stock solutions at reduced application rates for each herbicide. Spray solutions of the herbicide combinations (Compound A or Compound B plus HPPD inhibitor herbicide) were prepared by adding weighed amounts or aliquots of the HPPD inhibitor herbicides to the stock solutions of Compound A or Compound B to form 12-mL spray solutions in two-way combinations.\n(§3) The spray solutions were applied to the plant material with an overhead Mandel track sprayer equipped with 8002E nozzles calibrated to deliver 187 L/ha over an application area of 0.503 square meters (m^2) at a spray height of 18 inches (43 centimeters (cm)) above the average plant canopy. Control plants were sprayed in the same manner with the solvent blank. All pyridine carboxylate herbicide (component a) application rates are given as “g ae/ha” and all HPPD inhibitor herbicide (component b) application rates are given as “g ai/ha.”\n(§4) The treated plants and control plants were placed in a greenhouse as described above and watered by sub-irrigation to prevent wash-off of the test compounds. After 20-22 d, the condition of the test plants as compared with that of the control plants was determined visually and scored on a scale of 0 to 100 percent where 0 corresponds to no injury and 100 corresponds to complete kill."}, "[2]": {"tested_on": "CIRAR, Cirsium arvense (Canadian thistle)", "test": "Greenhouse postemergence herbicidal effect, visual injury 20-22 d after application", "excerpt": "as §1, §2, §3, §4"}, "[3]": {"tested_on": "KCHSC, Kochia scoparia (kochia)", "test": "Greenhouse postemergence herbicidal effect, visual injury 20-22 d after application", "conditions": "Bassia scoparia, post-emergence, read-out: % visual injury Obs", "excerpt": "as §1, §2, §3, §4"}, "[4]": {"tested_on": "EPHHL, Euphorbia heterophylla (poinsettia)", "test": "Greenhouse postemergence herbicidal effect, visual injury 20-22 d after application", "conditions": "Mesotrione 35 g ai/ha", "excerpt": "as §1, §2, §3, §4"}, "[5]": {"tested_on": "POLCO, Polygonum convolvulus (wild buckwheat)", "test": "Greenhouse postemergence herbicidal effect, visual injury 20-22 d after application", "excerpt": "as §1, §2, §3, §4"}, "[6]": {"tested_on": "HELAN, Helianthus annuus (common sunflower)", "test": "Greenhouse postemergence herbicidal effect, visual injury 20-22 d after application", "conditions": "Mesotrione 35 g ai/ha", "excerpt": "as §1, §2, §3, §4"}, "[7]": {"tested_on": "VIOTR, Viola tricolor (wild pansy)", "test": "Greenhouse postemergence herbicidal effect, visual injury 20-22 d after application", "excerpt": "as §1, §2, §3, §4"}, "[8]": {"tested_on": "ABUTH, Abutilon theophrasti (velvetleaf)", "test": "Greenhouse postemergence herbicidal effect, visual injury 20-22 d after application", "excerpt": "as §1, §2, §3, §4"}, "[9]": {"tested_on": "MATCH, Matricaria chamomilla (wild chamomile)", "test": "Greenhouse postemergence herbicidal effect, visual injury 20-22 d after application", "excerpt": "as §1, §2, §3, §4"}, "[10]": {"tested_on": "SASKR, Salsola kali (Russian thistle)", "test": "Greenhouse postemergence herbicidal effect, visual injury 20-22 d after application", "excerpt": "as §1, §2, §3, §4"}, "[11]": {"tested_on": "BRSNW, Brassica napus (winter rape)", "test": "Greenhouse postemergence herbicidal effect, visual injury 20-22 d after application", "excerpt": "as §1, §2, §3, §4"}, "[12]": {"tested_on": "CHEAL, Chenopodium album L. (common lambsquarters)", "test": "Greenhouse postemergence herbicidal effect, visual injury 20-22 d after application", "excerpt": "as §1, §2, §3, §4"}, "[13]": {"tested_on": "SINAR, Sinapis arvensis (wild mustard)", "test": "Greenhouse postemergence herbicidal effect, visual injury 20-22 d after application", "excerpt": "as §1, §2, §3, §4"}, "[14]": {"tested_on": "BRSNN, Brassica napus (spring rape)", "test": "Greenhouse postemergence herbicidal effect, visual injury 20-22 d after application", "conditions": "Sulcotrione 75 g ai/ha", "excerpt": "as §1, §2, §3, §4"}, "[15]": {"tested_on": "TRZAS, Triticum aestivum (spring wheat)", "test": "Greenhouse postemergence phytotoxicity on crop, visual injury 20-22 d after application", "excerpt": "as §1, §2, §3, §4"}, "[16]": {"tested_on": "HORVS, Hordeum vulgare (spring barley)", "test": "Greenhouse postemergence phytotoxicity on crop, visual injury 20-22 d after application", "excerpt": "as §1, §2, §3, §4"}, "[17]": {"conditions": "Mesotrione 35 g ai/ha (Table 8)"}}, "data": [{"smiles": "CS(=O)(=O)c1ccc(C(=O)C2C(=O)CCCC2=O)c([N+](=O)[O-])c1", "note": "[Mesotrione, 2-[4-(methylsulfonyl)-2-nitrobenzoyl]-1,3-cyclohexanedione]", "values": [{"measurement": "% visual injury Obs", "setting": "[1]; Mesotrione 35 g ai/ha", "value": 90, "unit": "%"}, {"measurement": "% visual injury Obs", "setting": "[2]; Mesotrione 35 g ai/ha", "value": 84, "unit": "%"}, {"measurement": "% visual injury Obs", "setting": "[2]; [17]", "value": 73, "unit": "%"}, {"measurement": "pest or weed control at 35 g/ha", "setting": "[3]; KCHSC, Mesotrione 35 g ai/ha", "value": 35, "unit": "%"}, {"measurement": "% visual injury Obs", "setting": "[4]", "value": 100, "unit": "%"}, {"measurement": "% visual injury Obs", "setting": "[5]; Mesotrione 35 g ai/ha", "value": 75, "unit": "%"}, {"measurement": "% visual injury Obs", "setting": "[6]", "value": 90, "unit": "%"}, {"measurement": "% visual injury Obs", "setting": "[7]; Mesotrione 35 g ai/ha", "value": 75, "unit": "%"}, {"measurement": "% visual injury Obs", "setting": "[7]; [17]", "value": 78, "unit": "%"}, {"measurement": "% visual injury Obs", "setting": "[8]; Mesotrione 35 g ai/ha", "value": 99, "unit": "%"}, {"measurement": "% visual injury Obs", "setting": "[8]; [17]", "value": 85, "unit": "%"}]}, {"smiles": "Cc1ccc(S(=O)(=O)Oc2c(C(=O)c3ccc(Cl)cc3Cl)c(C)nn2C)cc1", "note": "[Pyrazolynate, (2,4-dichlorophenyl) [1,3-dimethyl-5-[[(4-methylphenyl)sulfonyl]oxy]-1H-pyrazol-4-yl]methanone]", "values": [{"measurement": "% visual injury Obs", "setting": "[1]; Pyrazolynate 225 g ai/ha", "value": 10, "unit": "%"}, {"measurement": "% visual injury Obs", "setting": "[2]; Pyrazolynate 225 g ai/ha", "value": 0, "unit": "%"}, {"measurement": "pest or weed control at 225 g/ha", "setting": "[3]; KCHSC, Pyrazolynate 225 g ai/ha", "value": 0, "unit": "%"}, {"measurement": "% visual injury Obs", "setting": "[9]; Pyrazolynate 225 g ai/ha", "value": 0, "unit": "%"}, {"measurement": "% visual injury Obs", "setting": "[5]; Pyrazolynate 225 g ai/ha", "value": 5, "unit": "%"}, {"measurement": "% visual injury Obs", "setting": "[10]; Pyrazolynate 225 g ai/ha", "value": 0, "unit": "%"}, {"measurement": "% visual injury Obs", "setting": "[11]; Pyrazolynate 225 g ai/ha", "value": 0, "unit": "%"}, {"measurement": "% visual injury Obs", "setting": "[12]; Pyrazolynate 225 g ai/ha", "value": 5, "unit": "%"}, {"measurement": "% visual injury Obs", "setting": "[13]; Pyrazolynate 225 g ai/ha", "value": 5, "unit": "%"}]}, {"smiles": "CS(=O)(=O)c1ccc(C(=O)C2C(=O)CCCC2=O)c(Cl)c1", "note": "[Sulcotrione, 2-[2-chloro-4-(methylsulfonyl)benzoyl]-1,3-cyclohexanedione]", "values": [{"measurement": "pest or weed control at 75 g/ha", "setting": "[3]", "value": 30, "unit": "%"}, {"measurement": "% visual injury Obs", "setting": "[14]", "value": 75, "unit": "%"}, {"measurement": "% visual injury Obs", "setting": "[15]; Sulcotrione 75 g ai/ha", "value": 0, "unit": "%"}, {"measurement": "% visual injury Obs", "setting": "[16]; Sulcotrione 75 g ai/ha", "value": 8, "unit": "%"}]}, {"smiles": "CS(=O)(=O)c1ccc(C(=O)C2C(=O)CCCC2=O)c(Cl)c1COCC(F)(F)F", "note": "[Tembotrione, 2-[2-chloro-4-(methylsulfonyl)-3-[(2,2,2-trifluoroethoxy)methyl]benzoyl]-1,3-cyclohexanedione]", "values": [{"measurement": "% visual injury Obs", "setting": "[1]; Tembotrione 25 g ai/ha", "value": 100, "unit": "%"}, {"measurement": "% visual injury Obs", "setting": "[2]; Tembotrione 25 g ai/ha", "value": 75, "unit": "%"}, {"measurement": "pest or weed control at 25 g/ha", "setting": "[3]; KCHSC, Tembotrione 25 g ai/ha", "value": 48, "unit": "%"}, {"measurement": "% visual injury Obs", "setting": "[9]; Tembotrione 25 g ai/ha", "value": 73, "unit": "%"}, {"measurement": "% visual injury Obs", "setting": "[5]; Tembotrione 25 g ai/ha", "value": 25, "unit": "%"}, {"measurement": "% visual injury Obs", "setting": "[10]; Tembotrione 25 g ai/ha", "value": 78, "unit": "%"}, {"measurement": "% visual injury Obs", "setting": "[11]; Tembotrione 25 g ai/ha", "value": 88, "unit": "%"}, {"measurement": "% visual injury Obs", "setting": "[12]; Tembotrione 25 g ai/ha", "value": 100, "unit": "%"}, {"measurement": "% visual injury Obs", "setting": "[13]; Tembotrione 25 g ai/ha", "value": 95, "unit": "%"}]}, {"smiles": "Cc1c(C(=O)c2cnn(C)c2O)ccc(S(C)(=O)=O)c1C1=NOCC1", "note": "[Topramezone, [3-(4,5-dihydro-3-isoxazolyl)-2-methyl-4-(methylsulfonyl)phenyl] (5-hydroxy-1-methyl-1H-pyrazol-4-yl) methanone]", "values": [{"measurement": "% visual injury Obs", "setting": "[1]; Topramezone 40 g ai/ha", "value": 100, "unit": "%"}, {"measurement": "% visual injury Obs", "setting": "[2]; Topramezone 40 g ai/ha", "value": 20, "unit": "%"}, {"measurement": "pest or weed control at 40 g/ha", "setting": "[3]", "value": 35, "unit": "%"}, {"measurement": "% visual injury Obs", "setting": "[9]; Topramezone 40 g ai/ha", "value": 30, "unit": "%"}, {"measurement": "% visual injury Obs", "setting": "[5]; Topramezone 40 g ai/ha", "value": 43, "unit": "%"}, {"measurement": "% visual injury Obs", "setting": "[11]; Topramezone 40 g ai/ha", "value": 98, "unit": "%"}, {"measurement": "% visual injury Obs", "setting": "[12]; Topramezone 40 g ai/ha", "value": 100, "unit": "%"}, {"measurement": "% visual injury Obs", "setting": "[13]; Topramezone 40 g ai/ha", "value": 100, "unit": "%"}, {"measurement": "% visual injury Obs", "setting": "[15]; Topramezone 40 g ai/ha", "value": 33, "unit": "%"}, {"measurement": "% visual injury Obs", "setting": "[16]; Topramezone 40 g ai/ha", "value": 38, "unit": "%"}]}]}
